Assay results reported in patent publication US10342782B2, “Positive allosteric modulators of the muscarinic acetylcholine receptor M4” (Vanderbilt University, priority 2016, dated 2019).

Target: T1, Human M4 (Homo sapiens, UniProt P08173)
T1 sequence (P08173 1-479): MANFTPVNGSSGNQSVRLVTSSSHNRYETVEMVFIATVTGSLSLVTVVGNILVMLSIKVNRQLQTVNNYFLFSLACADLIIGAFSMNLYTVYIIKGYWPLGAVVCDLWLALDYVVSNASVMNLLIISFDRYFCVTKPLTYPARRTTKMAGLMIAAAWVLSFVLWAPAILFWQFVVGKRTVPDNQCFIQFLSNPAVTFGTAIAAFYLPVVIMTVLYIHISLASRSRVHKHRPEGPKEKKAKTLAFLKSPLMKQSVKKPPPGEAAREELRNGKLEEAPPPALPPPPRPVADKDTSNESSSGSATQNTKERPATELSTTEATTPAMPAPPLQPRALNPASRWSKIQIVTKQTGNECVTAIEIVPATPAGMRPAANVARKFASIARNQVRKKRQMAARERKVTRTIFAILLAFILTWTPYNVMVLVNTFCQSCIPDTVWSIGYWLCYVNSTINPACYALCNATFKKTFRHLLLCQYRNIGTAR
Test: cell-based
Conditions: for Emax: CHO-K1
Experimental: Human M4 cDNA, along with the chimeric G protein Gqi5, were transfected into Chinese hamster ovary (CHO-K1) cells purchased from the American Type Culture Collection using Lipofectamine2000. M4/Gqi5/CHO cells were grown in Ham's F-12 medium containing 10% heat-inactivated fetal bovine serum (FBS), 20 mM HEPES, 500 μg/mL G418 sulfate, and 200 μg/mL Hygromycin B.
For high throughput measurement of agonist-evoked increases in intracellular calcium, CHO-K1 cells stably expressing muscarinic receptors were plated in growth medium lacking G418 and hygromycin at 15,000 cells/20 μL/well in Greiner 384-well black-walled, tissue culture (TC)-treated, clear-bottom plates (VWR). Cells were incubated overnight at 37° C. and 5% CO2. […] Test compound CRCs were then transferred to daughter plates (240 nL) using the Echo acoustic plate reformatter (Labcyte, Sunnyvale, Calif.) and then diluted into assay buffer (40 μL) to a 2× stock using a Thermo Fisher Combi (Thermo Fisher Scientific, Waltham, Mass.).
Calcium flux was measured using the Functional Drug Screening System (FDSS) 6000 or 7000 (Hamamatsu Corporation, Tokyo, Japan) as an increase in the fluorescent static ratio. Compounds were applied to cells (20 μL, 2×) using the automated system of the FDSS at 2-4 s into the protocol and the data were collected at 1 Hz. […] Agonist activity was analyzed as a concentration-dependent increase in calcium mobilization upon compound addition. Positive allosteric modulator activity was analyzed as a concentration-dependent increase in the EC20 acetylcholine response. Antagonist activity was analyzed as a concentration-dependent decrease in the EC80 acetylcholine response. Concentration-response curves were generated using a four-parameter logistical equation in XLFit curve fitting software (IDBS, Bridgewater, N.J.) for Excel (Microsoft, Redmond, Wash.) or Prism (GraphPad Software, Inc., San Diego, Calif.).

SMILES	EC50	Emax
Cc1nc2cc(C)c3c(N)c(C(=O)NCc4ccc(N5CCN(C)CC5)cc4)sc3n2n1 [Compound 8, 6-amino-2,5-dimethyl-N-(4-(4-methylpiperazin-1-yl)benzyl)thieno[3,2-e][1,2,4]triazolo[1,5-a]pyridine-7-carboxamide]	217 nM	86%
Cc1nc2cc(C)c3c(N)c(C(=O)N[C@@H]4CCN(c5ccc(F)cn5)C4)sc3n2n1 [Compound 15, (R)-6-amino-N-(1-(5-fluoropyridin-2-yl)pyrrolidin-3-yl)-2,5-dimethylthieno[3,2-e][1,2,4]triazolo[1,5-a]pyridine-7-carboxamide]	1200 nM	43%
Cc1nc2cc(C)c3c(N)c(C(=O)N[C@H]4CCN(c5ccc(F)cn5)C4)sc3n2n1 [Compound 12, (S)-6-amino-N-(1-(5-fluoropyridin-2-yl)pyrrolidin-3-yl)-2,5-dimethylthieno[3,2-e][1,2,4]triazolo[1,5-a]pyridine-7-carboxamide]	596 nM	66%
Cc1nc2cc(C)c3c(N)c(C(=O)NC4CN(c5ncc(C6CC6)cc5C)C4)sc3n2n1 [Compound 9, 6-amino-N-(1-(5-cyclopropyl-3-methylpyridin-2-yl)azetidin-3-yl)-2,5-dimethylthieno[3,2-e][1,2,4]triazolo[1,5-a]pyridine-7-carboxamide]	863 nM	79%
